The values below are quoted from earlier work in paper PMC3969558 (Molecular Biology and Evolution, 2013).

No end group written: not given here.

The subject of data set [1] is steroidal receptors (nuclear receptors similar to the sex steroid receptors). Conditions: ref Paris et al. 2008; Katsu et al. 2010.
Another data set deals with amphioxus GnRHR3. The note with it: ref Tello and Sherwood 2009.

Turning to `C[C@]12CC[C@@H]3c4ccc(O)cc4CC[C@H]3[C@@H]1CC[C@@H]2O` [estradiol], in data set [1], the “binding to amphioxus steroidal receptor” value is listed as “has been shown to bind one of the steroidal receptors”.
With “vertebrate GnRH2: vertebrate GnRH2, present throughout the vertebrates, 10 amino acids (QHWSHGWYPG; ends and bridges not checked; UniProt O43555 24-33, looked up)”, the “activation of GnRHR3 (earlier study)” value with amphioxus GnRHR3 was “activated amphioxus GnRHR3 within the vertebrate physiological range”.
